Tests used:
Type in all cases: biochemical
[1] = test system: NAHA activity from Dermatophagoides pteronyssinus (Dust mite); test: NAHA activity assay, dust mite; details: Dermatophagoides pteronyssinus (House dust mite)
Experimental: (§1) In order to determine NAHA activity in different samples, the technology in WO 98/033934 was employed: A sample containing a dried or freeze dried organism is added to a buffer solution containing 4-Methylumbelliferyl N-acetyl-β-D-glucosaminide in a concentration of 20 μM. The reaction-time is varied depending on the ambient temperature and according to a reaction-time/temperature data sheet previously developed for fungal NAHA activity at various temperatures, and is 30 minutes at 23° C. The resulting fluorescence formed during the reaction time is monitored in a calibrated fluorometer.
(§2) Experiments were conducted where varying concentrations of AgNO3 was added to an analysis substrate. Furthermore, the experiments where performed on dried or freeze dried materials where both intact and fragmented cells are to be expected to be present.
(§3) Experiments analogous to those in example 1 were carried out, but instead of using non-specific inhibitors, the effect of different concentrations of DNJNAc on the NAHA activity in various biomass containing samples was investigated.

[2] = test system: NAHA activity from Aspergillus fumigatus freeze dried; test: NAHA activity assay, Aspergillus fumigatus freeze dried; details: Aspergillus fumigatus (Freeze dried)
Experimental: as §1, §2, §3

[3] = test system: NAHA activity from Rhizopus stolonifer; test: NAHA activity assay, Rhizopus stolonifer
Experimental: as §1, §3

[4] = test system: NAHA activity from Aspergillus versicolor; test: NAHA activity assay, Aspergillus versicolor
Experimental: as §1, §3

Question: CC(=O)N[C@H]1CN[C@H](CO)[C@@H](O)[C@@H]1O [DNJNAc, 2-Acetamido-1,2-dideoxynojirimycin] was tested. Which “NAHA activity, 0 μM DNJNAc = 100%” value ([1]; DNJNAc 24.5 μM) did it give?
Answer: The value was 5%.

Question: What about the “NAHA activity, 0 μM DNJNAc = 100%” value ([1]; DNJNAc 49 μM) of the same compound?
Answer: Its value is 2%.

Question: And the “NAHA activity, 0 μM DNJNAc = 100%” value ([1]; DNJNAc 98 μM)?
Answer: Its value is 1%.

Question: And the “NAHA activity, 0 μM DNJNAc = 100%” value ([1]; DNJNAc 196 μM)?
Answer: The value was 1%.

Question: What about the “NAHA activity, 0 μM DNJNAc = 100%” value ([2]; DNJNAc 24.5 μM) of the same compound?
Answer: Its value is 114%.

Question: And the “NAHA activity, 0 μM DNJNAc = 100%” value ([2]; DNJNAc 49 μM)?
Answer: Its value is 105%.

Question: And the “NAHA activity, 0 μM DNJNAc = 100%” value ([2]; DNJNAc 98 μM)?
Answer: The value was 104%.

Question: And the “NAHA activity, 0 μM DNJNAc = 100%” value ([2]; DNJNAc 196 μM)?
Answer: Its value is 96%.

Question: And the “NAHA activity, 0 μM DNJNAc = 100%” value ([3]; DNJNAc 24.5 μM)?
Answer: Its value is 46%.

Question: What about the “NAHA activity, 0 μM DNJNAc = 100%” value ([3]; DNJNAc 49 μM) of the same compound?
Answer: The value was 32%.

Question: And the “NAHA activity, 0 μM DNJNAc = 100%” value ([3]; DNJNAc 98 μM)?
Answer: Its value is 23%.

Question: And the “NAHA activity, 0 μM DNJNAc = 100%” value ([3]; DNJNAc 196 μM)?
Answer: Its value is 18%.

Question: What about the “NAHA activity, 0 μM DNJNAc = 100%” value ([4]; DNJNAc 24.5 μM) of the same compound?
Answer: Its value is 92%.

Question: What about the “NAHA activity, 0 μM DNJNAc = 100%” value ([4]; DNJNAc 49 μM) of the same compound?
Answer: Its value is 79%.

Question: What about the “NAHA activity, 0 μM DNJNAc = 100%” value ([4]; DNJNAc 98 μM) of the same compound?
Answer: Its value is 71%.

Question: What about the “NAHA activity, 0 μM DNJNAc = 100%” value ([4]; DNJNAc 196 μM) of the same compound?
Answer: Its value is 63%.

From patent US20210115494A1, “Improved method for measurement of microbial biomass” (Mycometer A/S, priority 2018, published 2021)
